The record followed here is patent EP4722209A1 (Beijing Shenogen Pharma Group, priority 2023, dated 2024).

The test system of experiment [1] is MCF-7 cells. The experiment is described as follows: Inhibition of MCF-7 cell proliferation (CellTiter-Glo cell viability). The class given is cell-based. To be noted: Homo sapiens, MCF7, 144 h, 6 days treatment, 1 pM to 10 µM. Here is the method:
ERα-positive human breast cancer cells MCF-7 (ATCC, HTB-22) were cultured with EMEM medium (ATCC, catalog number 30-2003) containing 10% fetal bovine serum (Thermo Fisher, catalog number 10099141) and 10 µg/mL bovine insulin in 25 cm^2 or 75 cm^2 plastic tissue culture flasks in a 37 °C incubator with 5% CO2. The cells were passaged 2 to 3 times per week.
MCF-7 cells were seeded in 96-well plate at 3×10^3 cells/well with 90 µL culture medium per well, and cultured in a 37 °C incubator with 95% air and 5% CO2. After 24 hours, the test compounds were added: the compounds were serially diluted 10-fold in DMSO starting from 10 mM (dissolved in DMSO) to prepare gradient stock solutions. A complete culture medium containing 1% DMSO was prepared for further dilution, temporarily named as the "dilution buffer." Working solutions were prepared by diluting each stock solution with 99 times the volume of dilution buffer, that is, by adding 1 µL of the 10 mM stock solution to 99 µL of the dilution buffer and mixing thoroughly. Finally, 10 µL of the working solution was added to the cell-seeded culture plate. The final concentration of DMSO in the cell culture medium was 0.2%, and the final concentration of the test compounds ranged from 1 pM to 10 µM. The cells were then incubated at 37 °C for 3 days. The culture medium was removed and replaced with 90µL per well of fresh medium. According to the above compound dilution method, the test compounds were added again. On the 6th day, the CellTiter Glo luminescent cell viability assay kit (Promag, item number G7573) was added for cell viability measurement.
Cell viability was measured using the CellTiter-Glo assay kit, and the half-maximal growth inhibitory concentration (GI50) of the compounds was calculated using the Prism software.
The GI50 values (i.e., the concentration of the test compounds required to inhibit 50% of the cell proliferation) were calculated and shown in Table 2. A corresponds to a GI50 value below 10 nM, B corresponds to a GI50 value greater than 10 nM and less than 100 nM, and C corresponds to GI50 values greater than 100 nM. Table 2. The GI50 values of exemplary compounds in MCF-7 cells
Background: In ATP-based viability assays light output follows the ATP content of the culture.

Experiment [2] deals with T1, ERα (Homo sapiens, UniProt P03372).
T1 construct: host or cells: MCF-7
T1 sequence (P03372 1-595): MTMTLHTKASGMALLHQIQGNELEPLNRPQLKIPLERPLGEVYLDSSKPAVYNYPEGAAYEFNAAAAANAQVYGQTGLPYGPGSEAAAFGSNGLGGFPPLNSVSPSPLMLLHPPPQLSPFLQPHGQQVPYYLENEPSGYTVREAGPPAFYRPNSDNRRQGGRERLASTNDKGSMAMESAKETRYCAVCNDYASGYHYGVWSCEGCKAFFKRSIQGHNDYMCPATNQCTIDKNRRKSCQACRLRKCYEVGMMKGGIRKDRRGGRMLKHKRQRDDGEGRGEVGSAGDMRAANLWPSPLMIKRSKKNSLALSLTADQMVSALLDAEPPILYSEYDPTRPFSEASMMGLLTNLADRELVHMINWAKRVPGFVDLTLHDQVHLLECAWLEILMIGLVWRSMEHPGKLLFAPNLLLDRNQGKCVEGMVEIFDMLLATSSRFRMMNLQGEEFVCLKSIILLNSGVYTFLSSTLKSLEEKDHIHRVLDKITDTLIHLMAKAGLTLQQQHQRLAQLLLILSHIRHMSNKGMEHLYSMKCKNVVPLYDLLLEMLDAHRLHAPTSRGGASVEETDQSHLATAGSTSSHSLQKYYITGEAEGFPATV
The experiment is described as follows: ER degradation activity in MCF-7 cells (Western blot, grayscale intensity). Type of experiment: cell-based. To be noted: 6 hours treatment, 1 nM to 100 nM, concentration required to degrade 50% of the target protein. The essentials: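 MCF-7 cells were treated 24 h after seeding with test compounds at 1 nM to 100 nM final (0.2% DMSO) for 6 h at 37 °C. ERα in lysates (30 µg protein) was detected by Western blot with ECL; degradation was quantified from band grayscale intensity and DC50 derived.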
On the technique in general: In western blotting, separated proteins are transferred to a membrane and probed.

`CC1(C)CC(=C(c2ccc(N3CCC(CN4CCN(c5ccc6c(c5)CN(C5CCC(=O)NC5=O)C6=O)CC4)CC3)nc2)c2ccc3[nH]nc(F)c3c2)CC(C)(C)O1` (racemic) [Compound 34]: the GI50 (in general, the concentration that inhibits growth by half) in experiment [1] was below 10 nM. Further, the DC50 – broadly, the concentration giving 50% degradation – in experiment [2] was below 10 nM.

In experiment [1], `CC1(C)CC(=C(c2ccc(N3CCC4(CC3)CC(N3CCN(c5ccc6c(c5)CN(C5CCC(=O)NC5=O)C6=O)CC3)C4)nc2)c2ccc3[nH]nc(F)c3c2)CC(C)(C)O1` (racemic) [Compound 35] yielded a GI50 below 10 nM. Also, the 50% degradation concentration (DC50) in experiment [2] was below 10 nM.

In experiment [1], `CC1(C)CC(=C(c2ccc(N3CCN(C4CN(c5ccc6c(c5)C(=O)N(C5CCC(=O)NC5=O)C6=O)C4)CC3)cc2)c2ccc3[nH]nc(F)c3c2)CC(C)(C)O1` (stereo not shown) [Compound 2] yielded a GI50 of 10 to 100 nM. The compound further had a DC50 in experiment [2] below 10 nM.

The compound `CC1(C)CC(=C(c2ccc(N3CCC(CN4CCN(c5ccc6c(c5)C(=O)N(C5CCC(=O)NC5=O)C6=O)CC4)CC3)cc2)c2ccc3[nH]ncc3c2)CC(C)(C)O1` (stereo not shown) [Compound 5] gave a GI50 in experiment [1] below 10 nM. The compound further came in with a DC50 in experiment [2] below 10 nM.

In the case of `CC1(C)CC(=C(c2ccc(N3CCC(CN4CCN(c5ccc6c(c5)C(=O)N(C5CCC(=O)NC5=O)C6=O)CC4)CC3)cc2)c2ccc3[nH]nc(F)c3c2)CC(C)(C)O1` (stereo not shown) [Compound 6], the GI50 in experiment [1] is below 10 nM. The compound also showed a half-maximal degradation concentration (DC50) in experiment [2] below 10 nM.

In the case of `CC1(C)CC(=C(c2ccc(N3CCN(C4CCN(c5ccc6c(c5)C(=O)N(C5CCC(=O)NC5=O)C6=O)CC4)CC3)cc2)c2ccc3[nH]nc(F)c3c2)CC(C)(C)O1` (stereo not shown) [Compound 22], the GI50 in experiment [1] is below 10 nM. In experiment [2], this compound showed a DC50 below 10 nM.

As to `CC1(C)CC(=C(c2ccc(N3CCC(N4CCN(c5ccc6c(c5)C(=O)N(C5CCC(=O)NC5=O)C6=O)CC4)CC3)cc2)c2ccc3[nH]nc(F)c3c2)CC(C)(C)O1` (stereo not shown) [Compound 31], the GI50 in experiment [1] was below 10 nM. Also, the DC50 in experiment [2] is below 10 nM.

The compound `CC1(C)CC(=C(c2ccc(N3CCC(N4CCN(c5ccc6c(c5)CN(C5CCC(=O)NC5=O)C6=O)CC4)CC3)cc2)c2ccc3[nH]nc(F)c3c2)CC(C)(C)O1` (stereo not shown) [Compound 37] showed a GI50 in experiment [1] below 10 nM. The DC50 in experiment [2] was 10 to 100 nM.

`CC1(C)CC(=C(c2ccc(N3CCC(CNC4CCN(c5ccc6c(c5)CN(C5CCC(=O)NC5=O)C6=O)CC4)CC3)nc2)c2ccc3[nH]nc(F)c3c2)CC(C)(C)O1` (stereo not shown) [Compound 44] yielded a GI50 in experiment [1] below 10 nM. This compound yielded a DC50 in experiment [2] below 10 nM.

Turning to `CC1(C)CC(=C(c2ccc(N3CC4(CCN(C5CCN(c6ccc7c(c6)CN(C6CCC(=O)NC6=O)C7=O)CC5)CC4)C3)nc2)c2ccc3[nH]nc(F)c3c2)CC(C)(C)O1` (stereo not shown) [Compound 46], the GI50 in experiment [1] is below 10 nM. For the same compound, the 50% degradation concentration (DC50) in experiment [2] was below 10 nM.

On to `CC1(C)CC(=C(c2ccc(N3CCC4(CC3)CN(C3CCN(c5ccc6c(c5)CN(C5CCC(=O)NC5=O)C6=O)CC3)C4)nc2)c2ccc3[nH]nc(F)c3c2)CC(C)(C)O1` (stereo not shown) [Compound 47], for which the GI50 in experiment [1] is below 10 nM. For the same compound, the DC50 in experiment [2] was below 10 nM.

The compound `CC1(C)CC(=C(c2ccc(N3CCC(F)(CNC4CCN(c5ccc6c(c5)CN(C5CCC(=O)NC5=O)C6=O)CC4)CC3)nc2)c2ccc3[nH]nc(F)c3c2)CC(C)(C)O1` (stereo not shown) [Compound 48] returned a GI50 in experiment [1] below 10 nM. Further, in experiment [2], the DC50 is below 10 nM.

In experiment [1], `CC1(C)CC(=C(c2ccc(N3CCC(CN4CCN(c5ccc(N6CCC(=O)NC6=O)cc5)CC4)CC3)nc2)c2ccc3[nH]nc(F)c3c2)CC(C)(C)O1` [Compound 77] came in with a GI50 above 100 nM. The compound further showed a 50% degradation concentration (DC50) in experiment [2] above 100 nM.

`CC1(C)CC(=C(c2ccc(N3CCC(CN4CCN(c5ccc(NC6CCC(=O)NC6=O)cc5)CC4)CC3)nc2)c2ccc3[nH]nc(F)c3c2)CC(C)(C)O1` (stereo not shown) [Compound 88]: the GI50 in experiment [1] was above 100 nM. In experiment [2], this compound returned a DC50 above 100 nM.

In experiment [1], `CC1(C)CC(=C(c2ccc(N3CCC(CN4CCN(c5ccc(NC6CCC(=O)NC6=O)c(F)c5)CC4)CC3)nc2)c2ccc3[nH]nc(F)c3c2)CC(C)(C)O1` (stereo not shown) [Compound 89] came in with a GI50 above 100 nM. Further, the DC50 in experiment [2] is above 100 nM.

The compound `CC1(C)CC(=C(c2ccc(N3CCC(CN4CCN(c5ccc6c(c5)CN([C@@H]5CCC(=O)NC5=O)C6=O)CC4)CC3)nc2)c2ccc3[nH]nc(F)c3c2)CC(C)(C)O1` [Compound 119] registered a GI50 in experiment [1] below 10 nM. Also, the DC50 in experiment [2] was below 10 nM.

For `CC1(C)CC(=C(c2ccc(N3CCC4(CC3)CC(N3CCN(c5ccc6c(c5)CN([C@@H]5CCC(=O)NC5=O)C6=O)CC3)C4)nc2)c2ccc3[nH]nc(F)c3c2)CC(C)(C)O1` [Compound 121], the GI50 in experiment [1] is below 10 nM. Further, the DC50 in experiment [2] is below 10 nM.

`CC1(C)CC(=C(c2ccc(N3CCC(CN4CCN(c5ccc6c(c5)C(=O)N([C@@H]5CCC(=O)NC5=O)C6=O)CC4)CC3)cc2)c2ccc3[nH]ncc3c2)CC(C)(C)O1` [Compound 130] returned a 50% degradation concentration (DC50) in experiment [2] below 10 nM.

In experiment [2], `CC1(C)CC(=C(c2ccc(N3CCC(CN4CCN(c5ccc6c(c5)C(=O)N([C@H]5CCC(=O)NC5=O)C6=O)CC4)CC3)cc2)c2ccc3[nH]ncc3c2)CC(C)(C)O1` [Compound 131] registered a half-maximal degradation concentration (DC50) below 10 nM.

In turn, `CC1(C)CC(=C(c2ccc(N3CCC(N4CCN(c5ccc6c(c5)CN([C@@H]5CCC(=O)NC5=O)C6=O)CC4)CC3)cc2)c2ccc3[nH]nc(F)c3c2)CC(C)(C)O1` [Compound 134] yielded a 50% degradation concentration (DC50) in experiment [2] of 10 to 100 nM.

For `CC1(C)CC(=C(c2ccc(N3CCC(N4CCN(c5ccc6c(c5)CN([C@H]5CCC(=O)NC5=O)C6=O)CC4)CC3)cc2)c2ccc3[nH]nc(F)c3c2)CC(C)(C)O1` [Compound 135], the DC50 in experiment [2] was 10 to 100 nM.

For the compound `CC1(C)CC(=C(c2ccc(N3CCC(CN4CCN(c5ccc6c(c5)CN([C@@H]5CCC(=O)NC5=O)C6=O)CC4)CC3)nc2)c2ccc3[nH]ncc3c2)CC(C)(C)O1` [Compound 136], in experiment [2], the DC50 was below 10 nM.

Regarding `CC1(C)CC(=C(c2ccc(N3CCC(CN4CCN(c5ccc6c(c5)CN([C@H]5CCC(=O)NC5=O)C6=O)CC4)CC3)nc2)c2ccc3[nH]ncc3c2)CC(C)(C)O1` [Compound 137], the DC50 in experiment [2] is below 10 nM.

In the case of `CC1(C)CC(=C(c2ccc(N3CC4(CCN(C5CCN(c6ccc7c(c6)CN([C@@H]6CCC(=O)NC6=O)C7=O)CC5)CC4)C3)nc2)c2ccc3[nH]nc(F)c3c2)CC(C)(C)O1` [Compound 138], in experiment [2], the half-maximal degradation concentration (DC50) is below 10 nM.

With `CC1(C)CC(=C(c2ccc(N3CC4(CCN(C5CCN(c6ccc7c(c6)CN([C@H]6CCC(=O)NC6=O)C7=O)CC5)CC4)C3)nc2)c2ccc3[nH]nc(F)c3c2)CC(C)(C)O1` [Compound 139], in experiment [2], the DC50 lay in the range of 10 to 100 nM.

Compound `CC1(C)CC(=C(c2ccc(N3CCC4(CC3)CN(C3CCN(c5ccc6c(c5)CN([C@@H]5CCC(=O)NC5=O)C6=O)CC3)C4)nc2)c2ccc3[nH]nc(F)c3c2)CC(C)(C)O1` [Compound 140] returned a DC50 in experiment [2] below 10 nM.

`CC1(C)CC(=C(c2ccc(N3CCC4(CC3)CN(C3CCN(c5ccc6c(c5)CN([C@H]5CCC(=O)NC5=O)C6=O)CC3)C4)nc2)c2ccc3[nH]nc(F)c3c2)CC(C)(C)O1` [Compound 141]: the DC50 in experiment [2] was below 10 nM.

Regarding `CC1(C)CC(=C(c2ccc(N3CCC(F)(CNC4CCN(c5ccc6c(c5)CN([C@@H]5CCC(=O)NC5=O)C6=O)CC4)CC3)nc2)c2ccc3[nH]nc(F)c3c2)CC(C)(C)O1` [Compound 142], the DC50 in experiment [2] is below 10 nM.

In experiment [2], `CC1(C)CC(=C(c2ccc(N3CCC(F)(CNC4CCN(c5ccc6c(c5)CN([C@H]5CCC(=O)NC5=O)C6=O)CC4)CC3)nc2)c2ccc3[nH]nc(F)c3c2)CC(C)(C)O1` [Compound 143] registered a DC50 of 10 to 100 nM.
